Values of other authors, collected in patent publication US20060199791A1, “Anti-microbial composition comprising a metal ion chelating agent” (AQ+ PLC, priority 2001, published 2006).

System: long term sinus infection
Details: patient history, infection for some 14 to 15 years

Compound | response of the sinus infection to earlier antibiotic treatment
CCC[C@@H]1C[C@@H](C(=O)N[C@@H]([C@H]2O[C@H](SC)[C@H](O)[C@@H](O)[C@H]2O)[C@H](C)Cl)N(C)C1 [Clindramycin] | resistant to treatment
CC1(C)S[C@@H]2[C@H](NC(=O)[C@H](N)c3ccc(O)cc3)C(=O)N2[C@H]1C(=O)O [Trimox] | resistant to treatment
O=C(O)c1cn(C2CC2)c2cc(N3CCNCC3)c(F)cc2c1=O [Cipro] | resistant to treatment
CC1(C)S[C@@H]2[C@H](NC(=O)COc3ccccc3)C(=O)N2[C@H]1C(=O)O [Veetids] | resistant to treatment
